Data on ten compounds can be found in US20050075375A1 (priority 2003, published 2005).

In the assay the test system is monocistronic NK5.1 HCV replicon in Huh7 cells. In words: HCV replicon assay, monocistronic replicon cell line. It is filed as cell-based, hepatitis C virus. Particulars: Hepatitis C virus, Huh-7, 72 h; table T3 (compounds 471-640); monocistronic replicon in Huh7 cells, 3 days incubation, HCV RNA/GAPDH RNA by TaqMan RT-PCR; read-out: Mono EC50 Median. A digest of the protocol:
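Huh7 cells carrying the monocistronic NK5.1 replicon, seeded 24 h before dosing, were exposed to six-point half-log compound series (0.6% DMSO) for 3 days at 37 °C. Replicon RNA was quantified by TaqMan RT-PCR, normalised to GAPDH and compared with DMSO controls to derive EC50.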
On the technique in general: Replicon systems follow genome replication, usually without infectious particles.

What is called EC50 is the concentration needed to bring the measured effect to its halfway point. On to `Oc1ccc(Br)cc1-c1ncn(-c2ccccn2)n1` [Compound 631, 4-Bromo-2-(1-pyridin-2-yl-1H-[1,2,4]triazol-3-yl)-phenol], for which the EC50 stood at 1.4 µM. Regarding `COc1ccc(O)c(-c2nc(-c3ncccc3C(F)(F)F)nn2C)c1` [Compound 632, 4-Methoxy-2-[2-methyl-5-(3-trifluoromethyl-pyridin-2-yl)-2H-[1,2,4]triazol-3-yl]-phenol], the EC50 was found to be 31 µM.

Consider `Cn1nc(-c2ncccc2C(F)(F)F)nc1-c1cc(Br)ccc1O` [Compound 633, 4-Bromo-2-[2-methyl-5-(3-trifluoromethyl-pyridin-2-yl)-2H-[1,2,4]triazol-3-yl]phenol], for which the 50% effective concentration (EC50) came to 3.6 µM.

In the case of `Oc1ccc(Br)cc1-c1ncn(-c2ncccc2C(F)(F)F)n1` [Compound 634, 4-Bromo-2-[1-(3-trifluoromethyl-pyridin-2-yl)-1H-[1,2,4]triazol-3-yl]-phenol], the EC50 turned out to be 3.8 µM. On to `Cc1cccnc1-n1cnc(-c2cc(Br)ccc2O)n1` [Compound 635, 4-Bromo-2-[1-(3-methyl-pyridin-2-yl)-1H-[1,2,4]triazol-3-yl]-phenol], for which the EC50 is 6.2 µM. For `COc1ccc(O)c(-c2ncn(-c3ccccn3)n2)c1` [Compound 636, 4-Methoxy-2-(1-pyridin-2-yl-1H-[1,2,4]triazol-3-yl)-phenol], the EC50 worked out at 15 µM. The figure for `COc1ccc(O)c(-c2ncn(-c3ncccc3C)n2)c1` [Compound 637, 4-Methoxy-2-[1-(3-methyl-pyridin-2-yl)-1H-[1,2,4]triazol-3-yl]-phenol] is 12 µM; for `COc1ccc(O)c(-c2ncn(-c3ncccc3C(F)(F)F)n2)c1` [Compound 638, 4-Methoxy-2-[1-(3-trifluoromethyl-pyridin-2-yl)-1H-[1,2,4]triazol-3-yl]-phenol] it is 11 µM. `c1ccc(-c2ncn(-c3ccccn3)n2)nc1` [Compound 639]: the EC50 is > 32 µM. The figure for `Cn1nc(-c2ncccc2C(F)(F)F)nc1-c1cc([N+](=O)[O-])ccc1O` [Compound 640, 4-Nitro-2-[2-methyl-5-(3-trifluoromethyl-pyridin-2-yl)-2H-[1,2,4]triazol-3-yl]-phenol] is > 32 µM.
